The record followed here is patent US9751886B2, “4-amino-6-phenyl-6,7-dihydro[1,2,3]triazolo[1,5-A]pyrazine derivatives as inhibitors of beta-secretase (BACE)” (Janssen Pharmaceutica NV, priority 2013, dated 2017).

Molecules are shown by their SMILES.

In experiment [1] the test system is Abeta total secreted by human neuroblastoma SKNBE2 cells expressing wild type hAPP695. The experiment is described as follows: BACE1 cellular αLisa assay in SKNBE2 cells, Abeta total. The format is cell-based. Conditions: Homo sapiens, 18 hours incubation, read-out: Cellular αLisa assay in SKNBE2 cells Abetatotal pIC50 (converted). The method, then:
(§1) In two αLisa assays the levels of Abeta total and Abeta 1-42 produced and secreted into the medium of human neuroblastoma SKNBE2 cells are quantified. The assay is based on the human neuroblastoma SKNBE2 expressing the wild type Amyloid Precursor Protein (hAPP695). The compounds are diluted and added to these cells, incubated for 18 hours and then measurements of Abeta 1-42 and Abeta total are taken. Abeta total and Abeta 1-42 are measured by sandwich αLisa. αLisa is a sandwich assay using biotinylated antibody AbN/25 attached to streptavidin coated beads and antibody Ab4G8 or cAb42/26 conjugated acceptor beads for the detection of Abeta total and Abeta 1-42 respectively. In the presence of Abeta total or Abeta 1-42, the beads come into close proximity. The excitation of the donor beads provokes the release of singlet oxygen molecules that trigger a cascade of energy transfer in the acceptor beads, resulting in light emission.

The subject of experiment [2] is Abeta 1-42 secreted by human neuroblastoma SKNBE2 cells expressing wild type hAPP695. The experiment is described as follows: BACE1 cellular αLisa assay in SKNBE2 cells, Abeta 1-42. In kind it is cell-based. The following applies: Homo sapiens, 18 hours incubation, read-out: Cellular αLisa assay in SKNBE2 cells Abeta 42 pIC50 (converted). The method, then: as §1
For experiment [3], the target named is T1, recombinant BACE1 protein (Homo sapiens (Human), UniProt P56817). The experiment is described as follows: BACE1 Biochemical FRET based assay - Method 1. Conditions: 1 μg/ml BACE1, 10 μM substrate, 120 min, pH 5.0; read-out: BACE1 Biochemical FRET based assay - Method 1 pIC50 (converted). The source says:
(§2) This assay is a Fluorescence Resonance Energy Transfer Assay (FRET) based assay. The substrate for this assay is an APP derived 13 amino acids peptide that contains the ‘Swedish’ Lys-Met/Asn-Leu mutation of the amyloid precursor protein (APP) beta-secretase cleavage site. This substrate also contains two fluorophores: (7-methoxycoumarin-4-yl) acetic acid (Mca) is a fluorescent donor with excitation wavelength at 320 nm and emission at 405 nm and 2,4-Dinitrophenyl (Dnp) is a proprietary quencher acceptor. […] Upon cleavage by BACE1, the fluorophore Mca is separated from the quenching group Dnp, restoring the full fluorescence yield of the donor. The increase in fluorescence is linearly related to the rate of proteolysis.
Briefly in a 384-well format recombinant BACE1 protein in a final concentration of 1 μg/ml is incubated for 120 minutes at room temperature with […] substrate in incubation buffer (40 mM Citrate buffer pH 5.0, 0.04% PEG, 4% DMSO) in the absence or presence of compound. Next the amount of proteolysis is directly measured by fluorescence measurement at T=0 and T=120 (excitation at 320 nm and emission at 405 nm). Results are expressed in RFU (Relative Fluorescence Units), as difference between T120 and TO.

In experiment [4] the target is T1, recombinant BACE1 protein. Kind of experiment: BACE1 Biochemical FRET based assay - Method 2. The following applies: 0.04 μg/ml BACE1, 20 μM substrate, 450 min, pH 5.0.
Excerpt: as §2
Briefly in a 384-well format recombinant BACE1 protein in a final concentration of 0.04 μg/ml is incubated for 450 minutes at room temperature with 20 μM substrate in incubation buffer (50 mM Citrate buffer pH 5.0, 0.05% PEG) in the presence of compound or DMSO. Next the amount of proteolysis is directly measured by fluorescence measurement (excitation at 320 nm and emission at 405 nm) at different incubation times (0, 30, 60, 90, 120 and 450 min). For every experiment a time curve (every 30 min between 0 min and 120 min) is used to determine the time where we find the lowest basal signal of the high control. The signal at this time (Tx) is used to subtract from the signal at 450 min. Results are expressed in RFU, as difference between T450 and Tx.

For experiment [5], the target named is recombinant BACE2 protein (Homo sapiens (Human), UniProt Q9Y5Z0). The experiment is described as follows: BACE2 Biochemical FRET based assay. Conditions: 0.4 μg/ml BACE2, 10 μM substrate, 450 min, pH 5.0.
Sequence of recombinant BACE2 protein (Q9Y5Z0 63-518): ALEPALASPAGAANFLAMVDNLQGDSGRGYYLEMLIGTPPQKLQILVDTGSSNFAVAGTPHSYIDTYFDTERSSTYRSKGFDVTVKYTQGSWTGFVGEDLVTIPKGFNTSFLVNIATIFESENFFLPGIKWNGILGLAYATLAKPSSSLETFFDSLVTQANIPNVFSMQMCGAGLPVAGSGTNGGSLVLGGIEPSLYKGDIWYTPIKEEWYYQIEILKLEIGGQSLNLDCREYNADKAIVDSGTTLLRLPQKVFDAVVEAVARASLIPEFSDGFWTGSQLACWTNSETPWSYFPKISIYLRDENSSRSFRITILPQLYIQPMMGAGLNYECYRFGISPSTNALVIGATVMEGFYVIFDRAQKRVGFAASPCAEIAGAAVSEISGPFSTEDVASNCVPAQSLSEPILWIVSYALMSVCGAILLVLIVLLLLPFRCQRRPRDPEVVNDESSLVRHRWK
Excerpt: as §2, with “assay” for “assay is an APP derived 13 amino acids peptide that”, “the beta-secretase,” for “BACE1,”
Briefly in a 384-well format recombinant BACE2 protein in a final concentration of 0.4 μg/ml is incubated for 450 minutes at room temperature with 10 μM substrate in incubation buffer (50 mM Citrate buffer pH 5.0, 0.05% PEG, no DMSO) in the absence or presence of compound. Next the amount of proteolysis is directly measured by fluorescence measurement at T=0 and T=450 (excitation at 320 nm and emission at 405 nm). Results are expressed in RFU (Relative Fluorescence Units), as difference between T450 and TO.

T1 sequence (P56817 46-501): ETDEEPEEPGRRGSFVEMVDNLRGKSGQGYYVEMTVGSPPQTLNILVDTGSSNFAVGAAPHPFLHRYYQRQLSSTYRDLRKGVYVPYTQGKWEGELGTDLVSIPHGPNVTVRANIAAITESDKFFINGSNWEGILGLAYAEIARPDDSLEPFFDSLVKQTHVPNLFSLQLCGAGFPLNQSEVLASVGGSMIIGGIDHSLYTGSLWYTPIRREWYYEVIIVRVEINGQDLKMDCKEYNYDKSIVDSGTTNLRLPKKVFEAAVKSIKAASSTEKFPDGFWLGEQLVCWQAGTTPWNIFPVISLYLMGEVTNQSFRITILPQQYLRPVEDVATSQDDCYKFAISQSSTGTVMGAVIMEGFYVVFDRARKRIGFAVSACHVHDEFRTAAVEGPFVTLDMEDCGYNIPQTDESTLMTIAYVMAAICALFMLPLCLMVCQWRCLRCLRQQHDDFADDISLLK

As for `C[C@@]1(c2cc(NC(=O)c3ccc(F)cn3)ccc2F)Cn2nncc2C(N)=N1` [Compound 1, N-{3-[(6R)-4-amino-6-methyl-6,7-dihydro[1,2,3]triazolo[1,5-a]pyrazin-6-yl]-4-fluorophenyl}-5-fluoropyridine-2-carboxamide], the IC50 in experiment [1] is 3.24 nM; in experiment [2], 4.47 nM; in experiment [3] it was 5.25 nM. The “BACE1 Biochemical FRET based assay - Method 2 pIC50” value in experiment [4] came to 8.37. The “BACE2 Biochemical FRET based assay pIC50” value in experiment [5] is 8.48.
